The source of these data is patent US8772307B2, “Substituted spiro compounds and their use for producing pain-relief medicaments” (Gruenenthal GmbH, priority 2005, dated 2014).

In one assay the target is T1, vanilloid receptor (VR1) (Homo sapiens, UniProt Q8NER1).
T1 construct: expressed in transfected cells; host or cells: CHO K1 cells (ECACC), stably transfected
The assay is described as follows: Functional testing on vanilloid receptor (VR1): FLIPR Ca2+ inflow assay in CHO K1 cells stably transfected with the VR1 gene. It counts as cell-based. The settings on record: for inhibition at 10 µM: CHO-K1, inhibition compared to 10 μM CP (capsaicin); for activation at 10 µM: CHO-K1, stimulation compared to 10 μM CP (capsaicin). The gist of the method: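 CHO K1 cells stably expressing VR1, loaded with Fluo-4 (2 μM, 30 min, 37° C); peak Ca²⁺ fluorescence read on FLIPR. Compound (10 μM) added first, agonism as % of 10 μM capsaicin signal; after 5 min, 100 nM capsaicin added, % inhibition calculated relative to maximal inhibition with 10 μM capsaicin.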

In assay [1] the target is T2, rat-species vanilloid receptor 1 (VR1/TRPV1) (Rattus norvegicus, UniProt O35433).
T2 construct: endogenous in cells; host or cells: primary cells dissociated from rat dorsal root ganglia (DRG)
Nature of the assay: Functional testing on vanilloid receptor 1 (VR1/TRPV1): FLIPR Ca2+ inflow assay in rat dorsal root ganglia cells (% activation / % inhibition vs capsaicin). It counts as cell-based. The settings on record: for inhibition at 10 µM: inhibition compared to 10 μM CP (capsaicin); for activation at 10 µM: stimulation compared to 10 μM CP (capsaicin); for IC50: capsaicin (CAP) stimulus, average. An outline of the steps: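 Rat dorsal root ganglion cells, dissociated with collagenase and trypsin, were plated at 3×10^5/mL on laminin-coated plates in NGF-containing HAMS F12 and cultured 2-3 days at 37° C. Ca2+ inflow read by Fluo-4 fluorescence on FLIPR; test compounds at 10 μM referenced to 10 μM capsaicin.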

T2 sequence (O35433 whole entry): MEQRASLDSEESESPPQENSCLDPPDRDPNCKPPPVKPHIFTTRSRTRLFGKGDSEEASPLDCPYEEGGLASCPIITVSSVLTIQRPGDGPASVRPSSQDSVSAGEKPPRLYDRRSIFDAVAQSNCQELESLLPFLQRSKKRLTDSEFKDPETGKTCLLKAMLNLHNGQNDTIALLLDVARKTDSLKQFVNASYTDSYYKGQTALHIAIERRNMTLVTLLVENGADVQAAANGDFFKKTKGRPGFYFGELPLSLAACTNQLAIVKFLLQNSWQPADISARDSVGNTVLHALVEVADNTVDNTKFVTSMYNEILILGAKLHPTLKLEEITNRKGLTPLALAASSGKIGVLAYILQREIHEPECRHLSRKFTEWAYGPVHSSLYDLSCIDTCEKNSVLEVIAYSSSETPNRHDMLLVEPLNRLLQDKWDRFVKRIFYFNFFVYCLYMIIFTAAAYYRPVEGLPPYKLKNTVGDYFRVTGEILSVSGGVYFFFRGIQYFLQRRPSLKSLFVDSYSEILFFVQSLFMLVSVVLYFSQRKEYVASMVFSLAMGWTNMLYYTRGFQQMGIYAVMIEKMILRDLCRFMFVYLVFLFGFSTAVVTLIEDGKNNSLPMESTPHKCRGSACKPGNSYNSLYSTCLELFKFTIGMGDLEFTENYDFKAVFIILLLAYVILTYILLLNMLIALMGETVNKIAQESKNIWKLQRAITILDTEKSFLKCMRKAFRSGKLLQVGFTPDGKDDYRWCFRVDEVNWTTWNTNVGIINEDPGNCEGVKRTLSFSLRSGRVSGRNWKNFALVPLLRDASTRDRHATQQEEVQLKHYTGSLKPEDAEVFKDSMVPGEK
T1 sequence (Q8NER1 whole entry): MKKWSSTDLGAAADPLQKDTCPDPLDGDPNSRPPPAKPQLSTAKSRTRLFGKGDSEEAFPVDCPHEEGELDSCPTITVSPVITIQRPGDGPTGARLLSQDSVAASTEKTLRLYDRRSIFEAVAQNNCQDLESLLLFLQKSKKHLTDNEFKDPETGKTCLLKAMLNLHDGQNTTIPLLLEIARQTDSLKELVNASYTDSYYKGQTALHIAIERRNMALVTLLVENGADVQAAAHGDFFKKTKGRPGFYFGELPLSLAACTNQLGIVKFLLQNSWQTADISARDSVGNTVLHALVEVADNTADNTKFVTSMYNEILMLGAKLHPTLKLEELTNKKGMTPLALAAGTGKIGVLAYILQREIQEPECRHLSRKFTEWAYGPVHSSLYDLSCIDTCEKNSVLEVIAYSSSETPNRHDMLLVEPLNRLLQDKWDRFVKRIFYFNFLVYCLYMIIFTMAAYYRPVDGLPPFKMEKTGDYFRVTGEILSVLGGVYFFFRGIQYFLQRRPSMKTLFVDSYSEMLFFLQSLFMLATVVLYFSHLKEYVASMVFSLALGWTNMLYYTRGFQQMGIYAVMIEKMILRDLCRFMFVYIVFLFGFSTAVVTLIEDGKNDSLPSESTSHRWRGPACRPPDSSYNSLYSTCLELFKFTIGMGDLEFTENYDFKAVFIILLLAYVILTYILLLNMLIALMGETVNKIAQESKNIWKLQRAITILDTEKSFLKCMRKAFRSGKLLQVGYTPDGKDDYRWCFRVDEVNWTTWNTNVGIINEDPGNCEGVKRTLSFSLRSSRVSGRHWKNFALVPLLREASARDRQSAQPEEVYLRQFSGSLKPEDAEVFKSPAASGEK

Consider `CCc1ccc(NC(=O)N2CCC3(CC2)CC(c2ccc(C(C)(C)C)cc2)=NO3)cc1` [Compound 165, 3-(4-tert-butylphenyl)-1-oxa-2,8-diazaspiro[4.5]dec-2-ene-8-carboxylic acid-(4-ethylphenyl)amide], for which, on vanilloid receptor (VR1), the inhibition – broadly, the change of the read-out against control, counted positive when it falls – at 10 µM came out at 1.69% and the activation at 10 µM is 1.92%. Further, in assay [1], the inhibition at 10 µM is 56.2% and the activation at 10 µM was -0.43%.
In the same order, the values of `O=C(Nc1ccccc1Oc1ccccc1)N1CCC2(CC1)CC(c1ccc(C(F)(F)F)cc1)=NO2` [Compound 103, 3-(4-trifluoromethylphenyl)-1-oxa-2,8-diazaspiro[4.5]dec-2-ene-8-carboxylic acid-(2-phenoxyphenyl)amide] are 8.28%, -0.35%, 50.9% and -0.47%.
On to `CC(C)(C)c1ccc(NC(=O)N2CCC3(CC2)CC(c2ncccc2Cl)=NO3)cc1` [Compound 329, 3-(3-chloropyridin-2-yl)-1-oxa-2,8-diazaspiro[4.5]dec-2-ene-8-carboxylic acid-(4-tert-butylphenyl)amide], for which the inhibition at 10 µM is 37% against vanilloid receptor (VR1) and 96% in assay [1]. For the same compound, the activation at 10 µM worked out at 38% on vanilloid receptor (VR1) and 71% in assay [1].
In the same order, the values of `O=C(Nc1ccc(Br)cc1)N1CCC2(CC1)CC(c1ccccc1)=NO2` [Compound 197, 3-phenyl-1-oxa-2,8-diazaspiro[4.5]dec-2-ene-8-carboxylic acid-(4-bromophenyl)amide] are -17.2%, 59.9%, 0.06% and -0.35%.
Taken in the same sequence, the figures for `CC1CN(C(=O)Nc2ccc(C(C)(C)C)cc2)CCC12CC(c1ccccc1F)=NO2` (stereo not drawn) [Compound 364, N-(4-tert-butylphenyl)-3-(2-fluorophenyl)-6-methyl-1-oxa-2,8-diazaspiro[4.5]dec-2-ene-8-carboxamide] were 50%, 106%, -1% and 4%.
In the case of `CC(C)(C)c1ccc(NC(=O)N2CCC3(CC2)CC(c2ccc(C(F)(F)F)cc2)=NO3)cc1` [Compound 145, 3-(4-trifluoromethylphenyl)-1-oxa-2,8-diazaspiro[4.5]dec-2-ene-8-carboxylic acid-(4-tert-butylphenyl)amide], the values for the inhibition at 10 µM (against vanilloid receptor (VR1); in assay [1]) were 4.26% and 59.9%, respectively. Besides, the activation at 10 µM at vanilloid receptor (VR1) is 2.49%; in assay [1], -0.2%.
For `CCc1ccc(NC(=O)N2CCC3(CC2)CC(c2ccccc2)=NO3)cc1` [Compound 163, 3-phenyl-1-oxa-2,8-diazaspiro[4.5]dec-2-ene-8-carboxylic acid-(4-ethylphenyl)amide], on vanilloid receptor (VR1), the inhibition at 10 µM was -3.15% and the activation at 10 µM is 0.12%. For the same compound, in assay [1], the inhibition at 10 µM stood at 84.3% and the activation at 10 µM was -0.43%.
With `Cc1ccc(C2=NOC3(CCN(C(=O)Nc4ccc(Cl)c(C(F)(F)F)c4)CC3)C2)cc1` [Compound 236, 3-p-tolyl-1-oxa-2,8-diazaspiro[4.5]dec-2-ene-8-carboxylic acid-(4-chloro-3-trifluoromethylphenyl)amide], the inhibition at 10 µM was -10.3% against vanilloid receptor (VR1) and 45.1% in assay [1]. Also, the figures for the activation at 10 µM (on vanilloid receptor (VR1); in assay [1]) were -0.28% and -0.47%, respectively.
Taken in the same sequence, the figures for `COc1cccc(C2=NOC3(CCN(C(=O)Nc4cccc(SC)c4)CC3)C2)c1` [Compound 59, 3-(3-methoxyphenyl)-1-oxa-2,8-diazaspiro[4.5]dec-2-ene-8-carboxylic acid-(3-methylsulphanylphenyl)amide] were 2.09%, 48.6%, 0.01% and 0.51%.
In the case of `COc1cccc(C2=NOC3(CCN(C(=O)Nc4cccc(F)c4)CC3)C2)c1` [Compound 174, 3-(3-methoxyphenyl)-1-oxa-2,8-diazaspiro[4.5]dec-2-ene-8-carboxylic acid-(3-fluorophenyl)amide], on vanilloid receptor (VR1), the inhibition at 10 µM was -25% and the activation at 10 µM came out at 5.9%. For the same compound, in assay [1], the inhibition at 10 µM was 47.8% and the activation at 10 µM is -0.28%.
In the same order, the values of `COc1cccc(C2=NOC3(CCN(C(=O)Nc4ccc(C(C)(C)C)cc4)CC3)C2)c1` [Compound 140, 3-(3-methoxyphenyl)-1-oxa-2,8-diazaspiro[4.5]dec-2-ene-8-carboxylic acid-(4-tert-butylphenyl)amide] are 9.67%, 9.37%, 99.2% and 1.4%.
In the same order, the values of `O=C(Nc1ccc(C(F)(F)F)cc1)N1CCC2(CC1)CC(c1cccc(F)c1)=NO2` [Compound 348, 3-(3-fluorophenyl)-N-(4-(trifluoromethyl)phenyl)-1-oxa-2,8-diazaspiro[4.5]dec-2-ene-8-carboxamide] are 60%, 0%, 101% and 3%.
Take `CC(C)c1ccc(NC(=O)N2CCC3(CC2)CC(c2ccc(Cl)cc2)=NO3)cc1` [Compound 79, 3-(4-chlorophenyl)-1-oxa-2,8-diazaspiro[4.5]dec-2-ene-8-carboxylic acid-(4-isopropylphenyl)amide]: the inhibition at 10 µM against vanilloid receptor (VR1) was -17.6%; in assay [1] it was 46.5%. Moreover, the activation at 10 µM was -0.35% at vanilloid receptor (VR1) and 0.38% in assay [1].
Turning to `CC1CN(C(=O)Nc2ccc(C(F)(F)F)cc2)CCC12CC(c1ccccc1)=NO2` (stereo not drawn) [Compound 385, 6-methyl-3-phenyl-N-(4-(trifluoromethyl)phenyl)-1-oxa-2,8-diazaspiro[4.5]dec-2-ene-8-carboxamide], at vanilloid receptor (VR1), the inhibition at 10 µM was 18% and the activation at 10 µM is -2%. Also, in assay [1], the IC50 (commonly the concentration that inhibits the measured activity by half) was determined as 59.8 nM, the inhibition at 10 µM amounted to 77% and the activation at 10 µM amounted to 1%.
With `COc1cccc(C2=NOC3(CCN(C(=O)Nc4ccc(SC)cc4)CC3)C2)c1` [Compound 65, 3-(3-methoxyphenyl)-1-oxa-2,8-diazaspiro[4.5]dec-2-ene-8-carboxylic acid-(4-methylsulphanylphenyl)amide], on vanilloid receptor (VR1), the inhibition at 10 µM is -10.8% and the activation at 10 µM is -0.07%. Moreover, in assay [1], the inhibition at 10 µM was found to be 80.5% and the activation at 10 µM came out at 0.08%.
`CC(C)(C)c1ccc(C2=NOC3(CCN(C(=O)Nc4ccc(I)cc4)CC3)C2)cc1` [Compound 45, 3-(4-tert-butylphenyl)-1-oxa-2,8-diazaspiro[4.5]dec-2-ene-8-carboxylic acid-(4-iodophenyl)amide]: at vanilloid receptor (VR1), the inhibition at 10 µM came out at 0.17% and the activation at 10 µM was -0.04%. In addition, in assay [1], the inhibition at 10 µM was found to be 55.5% and the activation at 10 µM is -0.73%.
In the same order, the values of `CC(C)(C)c1ccc(C(/C=C/c2ccccc2)=C/C(=O)N2CCC3(CC2)CC(c2ccccc2)=NO3)cc1` [Compound 337, (2E,4E)-3-(4-tert-butylphenyl)-5-phenyl-1-(3-phenyl-1-oxa-2,8-diazaspiro[4.5]dec-2-en-8-yl)penta-2,4-dien-1-one] are 16%, -1%, 95% and 1%.
Turning to `CC(C)(C)c1ccc(NC(=O)N2CCC3(CC2)CC(c2ccc(Cl)cc2)=NO3)cc1` [Compound 142, 3-(4-chlorophenyl)-1-oxa-2,8-diazaspiro[4.5]dec-2-ene-8-carboxylic acid-(4-tert-butylphenyl)amide], at vanilloid receptor (VR1), the inhibition at 10 µM is -18.8% and the activation at 10 µM is -0.07%. Besides, in assay [1], the inhibition at 10 µM amounted to 63% and the activation at 10 µM was -0.2%.
In the same order, the values of `O=C(Nc1ccc(C(F)(F)F)cc1)N1CCC2(CC1)CC(c1ccccc1)=NO2` [Compound 211, 3-phenyl-1-oxa-2,8-diazaspiro[4.5]dec-2-ene-8-carboxylic acid-(4-trifluoromethylphenyl)amide] are 9.23%, -0.18%, 97.5% and 0.33%.
Taken in the same sequence, the figures for `Cc1ccc(C2=NOC3(CCN(C(=O)Nc4cc(C(F)(F)F)ccc4Cl)CC3)C2)cc1` [Compound 225, 3-p-tolyl-1-oxa-2,8-diazaspiro[4.5]dec-2-ene-8-carboxylic acid-(2-chloro-5-trifluoromethylphenyl)amide] were -4.5%, 0.31%, 47.8% and -0.47%.
On to `O=C(/C=C/c1cccc(Br)c1)N1CCC2(CC1)CC(c1ccccc1)=NO2` [Compound 346, (E)-3-(3-bromophenyl)-1-(3-phenyl-1-oxa-2,8-diazaspiro[4.5]dec-2-en-8-yl)prop-2-en-1-one], for which, on vanilloid receptor (VR1), the inhibition at 10 µM worked out at 3% and the activation at 10 µM worked out at 0%. In addition, half-maximal inhibition on vanilloid receptor (VR1) (capsaicin (CAP) stimulus, average) (IC50) required 4380 nM. Further, in assay [1], the 50% inhibitory concentration (IC50) worked out at 1360 nM, the inhibition at 10 µM came to 62% and the activation at 10 µM was determined as 0%.
